Target: T1, SHP2 protein (Homo sapiens, UniProt Q06124)
T1 sequence (Q06124 1-593): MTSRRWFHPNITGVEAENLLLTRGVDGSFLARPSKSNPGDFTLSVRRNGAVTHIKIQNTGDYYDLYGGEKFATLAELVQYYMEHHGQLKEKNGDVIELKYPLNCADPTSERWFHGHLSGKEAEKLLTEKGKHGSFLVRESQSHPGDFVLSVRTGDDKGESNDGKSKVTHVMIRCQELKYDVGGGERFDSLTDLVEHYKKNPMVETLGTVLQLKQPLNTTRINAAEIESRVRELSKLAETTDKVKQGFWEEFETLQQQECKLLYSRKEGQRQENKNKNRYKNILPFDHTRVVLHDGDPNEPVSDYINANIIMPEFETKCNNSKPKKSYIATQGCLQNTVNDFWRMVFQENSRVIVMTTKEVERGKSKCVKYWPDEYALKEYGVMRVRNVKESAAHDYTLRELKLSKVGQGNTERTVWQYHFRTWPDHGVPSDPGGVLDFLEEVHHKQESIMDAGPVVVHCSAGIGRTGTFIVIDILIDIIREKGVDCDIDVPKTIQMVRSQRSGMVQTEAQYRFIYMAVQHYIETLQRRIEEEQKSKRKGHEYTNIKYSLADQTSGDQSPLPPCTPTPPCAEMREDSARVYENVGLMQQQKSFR
Assay: Measurement of SHP2 protein degradation in KYSE-520 cells (western blotting)
Format: cell-based
Set-up: endogenous in cells
Conditions: 24 hours
Experimental: Experimental Example 1: Measurement of SHP2 Protein Degradation in KYSE-520 Cells
KYSE-520 cells were treated with the synthesized Example compound, and the amount of SHP2 protein present in the cells was measured using western blotting detection. The protocol of the experiment conducted using KYSE-520 cells was as follows:
[Culture] KYSE-520 cells resuspended in RPMI1640 MEDIUM (Hyclone, SH30027.01) containing 5% FBS (Hyclone, SV30207.02) and 1% Penicillin-streptomycin (Welgene, LS 202-02) were seeded at a density of 2.5×10^5/well in a 6-well plate in an amount of 2 ml each and incubated for 2 days.
[Compound treatment] […] After 24 hours, cells were harvested. For the negative control group, DMSO diluted 1/10 to the media (3 mL DMSO+27 mL media) was added.
[Cell Lysis and Protein Quantification] Lysis buffer was prepared as follows: […] of RIPA buffer (Biosesang, RC2038-050-00)+0.5 mM PMSF (SIGMA, P7626)+1× Protease/Phosphatase Inhibitor (Cell signaling, 5872S) per well was added and placed on ice for 30 minutes (vortexing at 0 and 30 minutes, respectively). After sonication process (10 seconds pulse, 30 seconds rest, 5 cycles, 70% amplification), centrifugation (15000 g, 15 min, 4° C.) was performed, and then only the supernatant was taken and transferred to a new microtube. The sample was diluted ¼ with RIPA buffer in a 96-well plate, and mixed with A:B=50:1 of the BCA Protein Assay Kit (iNtRON, 21071). […] each of the mixture was left at 37° C. for 30 minutes, and cooled for 10 minutes. Then, absorbance was measured at 562 nm with the SYNERGY H1 microplate reader from BioTek. After making a sample by quantifying the protein with the measured value, boiling was performed at 70° C. for 10 minutes. At this time, the sample buffer used was a mixture of NuPAGE or Bolt 4× sample buffer (Invitrogen) and each 10× sample reducing agent according to the gel to be used, and RIPA buffer was used for protein dilution.
[Western blotting detection method] The same amount of sample was loaded on NuPAGE or Bolt Bis-tris 4-12% gradient gel and run (200 V, 35 minutes). It was transferred to 0.2 mm NC membrane with Trans-blot Turbo (BIO-RAD) (1.3 A constant, 25 V limit, 15 minutes). Blocking was performed at room temperature for 1 hour with Skim milk or Intercept Blocking Buffer (LI-COR, 927-60001):0.1% TBST=1:1. Anti SHPTP2 Mouse (1:500 in 5% Skim milk/TBST, size: 70 kDa, Santacruz sc-7384) was incubated overnight at 4° C., and Anti GAPDH Rabbit (1:2,000 in 5% BSA/0.2% TBST, size: 37 kDa, CST #2118) was incubated at room temperature for 1 hour 30 minutes or 3 hours. It was washed 3 times for 5 minutes each with 0.2% TBST washing buffer. Secondary antibody Anti-Rabbit IgG (1:5,000 in 5% Skim milk/0.2% TBST, CST), and IRDye® 680RD Goat anti-Rabbit IgG Secondary Antibody (1:10,000 in 5% BSA/0.2% TBST, LI-COR 926-68071) were incubated for 45 minutes on a rocker at room temperature. It was washed 5 times for 5 minutes each with 0.2% TBST washing buffer and detected with LI-COR's Odyssey. At this time, SHPTP2 was detected using SuperSignal West Pico PLUS Chemiluminescent Substrate, and house-keeping genes were also detected.
In the results of Table 4 below, Compounds 1-7, 13-19, and 21-26 are results in KYSE-520 cells, and the others are results in MV-4-11 cells.

| Compound | SHP2 degradation (%) 10 nM [%] | SHP2 degradation (%) 100 nM [%] | SHP2 degradation (%) 1000 nM [%] |
| --- | --- | --- | --- |
| Cc1ncsc1-c1ccc(CNC(=O)[C@@H]2C[C@@H](O)CN2C(=O)[C@@H](NC(=O)C2(F)CC2)C(C)(C)C)c(OCCCCN2CCC(CC(=O)Nc3cccc(Sc4cnc(N5CCC(C)(CN)CC5)cn4)c3Cl)CC2)c1 [Example 7, (2S,4R)—N-(2-(4-(4-(2-((3-((5-(4-(aminomethyl)-4-methylpiperidin-1-yl)pyrazin-2-yl)thio)-2-chlorophenyl)amino)-2-oxoethyl)piperidin-1-yl)butoxy)-4-(4-methylthiazol-5-yl)benzyl)-1-((S)-2-(1-fluorocyclopropane-1-carboxamido)-3,3-dimethylbutanoyl)-4-hydroxypyrrolidine-2-carboxamide] | 25.4 | 75.2 | 93.8 |
| Cc1ncsc1-c1ccc(CNC(=O)[C@@H]2C[C@@H](O)CN2C(=O)[C@@H](NC(=O)C2(F)CC2)C(C)(C)C)c(OCCCCN2CCC(CCC(=O)Nc3cccc(Sc4cnc(N5CCC(C)(CN)CC5)cn4)c3Cl)CC2)c1 [Example 15, (2S,4R)—N-(2-(4-(4-(3-((3-((5-(4-(aminomethyl)-4-methylpiperidin-1-yl)pyrazin-2-yl)thio)-2-chlorophenyl)amino)-3-oxopropyl)piperidin-1-yl)butoxy)-4-(4-methylthiazol-5-yl)benzyl)-1-((S)-2-(1-fluorocyclopropane-1-carboxamido)-3,3-dimethylbutanoyl)-4-hydroxypyrrolidine-2-carboxamide] | 21.7 | 58.3 | 74.6 |
| Cc1ncsc1-c1ccc(CNC(=O)[C@@H]2C[C@@H](O)CN2C(=O)[C@@H](NC(=O)C2(F)CC2)C(C)(C)C)c(OCCCCN2CCC(CCCC(=O)Nc3cccc(Sc4cnc(N5CCC(C)(CN)CC5)cn4)c3Cl)CC2)c1 [Example 17, (2S,4R)—N-(2-(4-(4-(4-((3-((5-(4-(aminomethyl)-4-methylpiperidin-1-yl)pyrazin-2-yl)thio)-2-chlorophenyl)amino)-4-oxobutyl)piperidin-1-yl)butoxy)-4-(4-methylthiazol-5-yl)benzyl)-1-((S)-2-(1-fluorocyclopropane-1-carboxamido)-3,3-dimethylbutanoyl)-4-hydroxypyrrolidine-2-carboxamide] | – | 71.8 | 94.9 |
| Cc1ncsc1-c1ccc(CNC(=O)[C@@H]2C[C@@H](O)CN2C(=O)[C@@H](NC(=O)C2(F)CC2)C(C)(C)C)c(OCCCCCCN2CCC(CCCC(=O)Nc3cccc(Sc4cnc(N5CCC(C)(CN)CC5)cn4)c3Cl)CC2)c1 [Example 18, (2S,4R)—N-(2-((6-(4-(4-((3-((5-(4-(aminomethyl)-4-methylpiperidin-1-yl)pyrazin-2-yl)thio)-2-chlorophenyl)amino)-4-oxobutyl)piperidin-1-yl)hexyl)oxy)-4-(4-methylthiazol-5-yl)benzyl)-1-((S)-2-(1-fluorocyclopropane-1-carboxamido)-3,3-dimethylbutanoyl)-4-hydroxypyrrolidine-2-carboxamide] | −9.0 | 56.9 | 91.8 |

Results, then the molecule that gave them:

| SHP2 degradation (%) 10 nM [%] | SHP2 degradation (%) 100 nM [%] | SHP2 degradation (%) 1000 nM [%] | Compound |
| --- | --- | --- | --- |
| −6.1 | 49.6 | 69.2 | Cc1ncsc1-c1ccc(CNC(=O)[C@@H]2C[C@@H](O)CN2C(=O)[C@@H](NC(=O)C2(F)CC2)C(C)(C)C)c(OCCN2CCC(CCC(=O)Nc3cccc(Sc4cnc(N5CCC(C)(CN)CC5)cn4)c3Cl)CC2)c1 [Example 13, (2S,4R)—N-(2-(2-(4-(3-((3-((5-(4-(aminomethyl)-4-methylpiperidin-1-yl)pyrazin-2-yl)thio)-2-chlorophenyl)amino)-3-oxopropyl)piperidin-1-yl)ethoxy)-4-(4-methylthiazol-5-yl)benzyl)-1-((S)-2-(1-fluorocyclopropane-1-carboxamido)-3,3-dimethylbutanoyl)-4-hydroxypyrrolidine-2-carboxamide] |
| 14.2 | 60.1 | 69.1 | Cc1ncsc1-c1ccc(CNC(=O)[C@@H]2C[C@@H](O)CN2C(=O)[C@@H](NC(=O)C2(F)CC2)C(C)(C)C)c(OCCCN2CCC(CCC(=O)Nc3cccc(Sc4cnc(N5CCC(C)(CN)CC5)cn4)c3Cl)CC2)c1 [Example 14, (2S,4R)—N-(2-(3-(4-(3-((3-((5-(4-(aminomethyl)-4-methylpiperidin-1-yl)pyrazin-2-yl)thio)-2-chlorophenyl)amino)-3-oxopropyl)piperidin-1-yl)propoxy)-4-(4-methylthiazol-5-yl)benzyl)-1-((S)-2-(1-fluorocyclopropane-1-carboxamido)-3,3-dimethylbutanoyl)-4-hydroxypyrrolidine-2-carboxamide] |
| −24.3 | 45.1 | 84.0 | Cc1ncsc1-c1ccc(CNC(=O)[C@@H]2C[C@@H](O)CN2C(=O)[C@@H](NC(=O)C2(F)CC2)C(C)(C)C)c(OCCN2CCC(CCCC(=O)Nc3cccc(Sc4cnc(N5CCC(C)(CN)CC5)cn4)c3Cl)CC2)c1 [Example 16, (2S,4R)—N-(2-(2-(4-(4-((3-((5-(4-(aminomethyl)-4-methylpiperidin-1-yl)pyrazin-2-yl)thio)-2-chlorophenyl)amino)-4-oxobutyl)piperidin-1-yl)ethoxy)-4-(4-methylthiazol-5-yl)benzyl)-1-((S)-2-(1-fluorocyclopropane-1-carboxamido)-3,3-dimethylbutanoyl)-4-hydroxypyrrolidine-2-carboxamide] |
| – | 31.5 | 78.0 | Cc1ncsc1-c1ccc(CNC(=O)[C@@H]2C[C@@H](O)CN2C(=O)[C@@H](NC(=O)C2(F)CC2)C(C)(C)C)c(OCCCCCCN2CC(C(=O)Nc3cccc(Sc4cnc(N5CCC(C)(CN)CC5)cn4)c3Cl)C2)c1 [Example 19, (2S,4R)—N-(2-((6-(3-((3-((5-(4-(aminomethyl)-4-methylpiperidin-1-yl)pyrazin-2-yl)thio)-2-chlorophenyl)carbamoyl)azetidin-1-yl)hexyl)oxy)-4-(4-methylthiazol-5-yl)benzyl)-1-((S)-2-(1-fluorocyclopropane-1-carboxamido)-3,3-dimethylbutanoyl)-4-hydroxypyrrolidine-2-carboxamide] |

Source: US20250230154A1, “COMPOUND HAVING SHP2 PROTEIN DEGRADING ACTIVITY, AND MEDICAL USES THEREOF” (UBIX THERAPEUTICS, INC., priority 2021, published 2025)
